Source: US20220050094A1, “Application of the apparent volume of distribution in extraction technologies and pharmacokinetics” (priority 2020, published 2022)

Experiment: clinical
Settings: human, in vivo
From the text: We claim that these volumes represent the physiological volumes of extracellular fluid compartments that receive the drug with different kinetic rates. Total exclusion of the drug from intracellular fluids is most plausible considering the highly polar and hydrophilic nature of sisomicin. Alternatively, the peripheral compartment could be considered to be interstitial fluid as a different phase of slightly higher drug affinity, where steric hindrance and binding to the negatively charged components of the extracellular matrix retards drug movement. […] The explicit solutions to the two-compartment model as a function of real time provide estimates of drug concentration upon repeated dosing (U.S. patent application Ser. No. 16/992,658). These drug concentrations at momentary distribution equilibrium (teq) can be used to determine the drug's apparent volume of distribution.
Eq. 21, can be used to assess a substance apparent volume of distribution associated with the phase of the central compartment, but only if the central compartment is a single phase. Using eq. 21, Vd,1 was calculated to be equal to 11.78 L. The equilibrium time of intercompartmental drug distribution teq is calculated from eq.
Eur J Clin Pharmacol. 1976; 10: 251-256. […]

Vd: 11.8 L
Compound: CN[C@@H]1[C@@H](O)[C@@H](O[C@@H]2[C@@H](O)[C@H](O[C@H]3OC(CN)=CC[C@H]3N)[C@@H](N)C[C@H]2N)OC[C@]1(C)O [sisomicin]
